According to patent US20250236608A1, “EGFR INHIBITORS” (Blueprint Medicines Corporation, priority 2022, published 2025):

What was measured:
[1] = target: EGFR L858R (Homo sapiens (Human), UniProt P00533, L858R); test: Biochemical EGFR inhibition assay, EGFR L858R; conditions: Caliper mobility shift; 1.0 mM ATP or ATP Km; read-out: Enz EGFR_L858R IC50
[2] = target: EGFR (d746-750) (Homo sapiens (Human), UniProt P00533, DEL746-750); test: Biochemical EGFR inhibition assay, EGFR (d746-750); conditions: Caliper mobility shift; 1.0 mM ATP or ATP Km; read-out: Enz EGFR_Exon19-del746-750 IC50
EGFR (d746-750), sequence (P00533 other isoform, or with tags, fused parts or gaps del 1-694/del 746-750 limits assumed): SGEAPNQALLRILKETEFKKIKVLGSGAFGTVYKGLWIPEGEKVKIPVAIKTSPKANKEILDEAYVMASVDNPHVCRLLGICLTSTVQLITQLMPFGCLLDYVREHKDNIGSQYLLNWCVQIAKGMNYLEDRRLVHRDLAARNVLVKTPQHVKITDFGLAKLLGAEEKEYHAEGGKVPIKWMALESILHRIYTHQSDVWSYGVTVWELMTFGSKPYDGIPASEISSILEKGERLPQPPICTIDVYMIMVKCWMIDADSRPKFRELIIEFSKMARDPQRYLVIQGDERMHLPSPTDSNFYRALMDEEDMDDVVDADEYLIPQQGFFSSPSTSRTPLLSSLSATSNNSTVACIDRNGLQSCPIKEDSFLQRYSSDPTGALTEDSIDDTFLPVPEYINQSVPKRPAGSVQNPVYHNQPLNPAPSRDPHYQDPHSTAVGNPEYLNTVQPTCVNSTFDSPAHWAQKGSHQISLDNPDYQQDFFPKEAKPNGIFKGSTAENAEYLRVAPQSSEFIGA

[3] = target: pEGFR (Tyr1068) in PC-9 cells (Ex19Del) (Homo sapiens (Human), UniProt P00533, DEL746-750); test: PC-9 pEGFR AlphaLISA assay; assay type: cell-based; conditions: 4 hours incubation, p-EGFR (Tyr1068) AlphaLISA, read-out: Ext pEGFR_PC-9 Ex19Del IC50
pEGFR (Tyr1068) in PC-9 cells (Ex19Del), sequence (P00533 other isoform, or with tags, fused parts or gaps del 746-750): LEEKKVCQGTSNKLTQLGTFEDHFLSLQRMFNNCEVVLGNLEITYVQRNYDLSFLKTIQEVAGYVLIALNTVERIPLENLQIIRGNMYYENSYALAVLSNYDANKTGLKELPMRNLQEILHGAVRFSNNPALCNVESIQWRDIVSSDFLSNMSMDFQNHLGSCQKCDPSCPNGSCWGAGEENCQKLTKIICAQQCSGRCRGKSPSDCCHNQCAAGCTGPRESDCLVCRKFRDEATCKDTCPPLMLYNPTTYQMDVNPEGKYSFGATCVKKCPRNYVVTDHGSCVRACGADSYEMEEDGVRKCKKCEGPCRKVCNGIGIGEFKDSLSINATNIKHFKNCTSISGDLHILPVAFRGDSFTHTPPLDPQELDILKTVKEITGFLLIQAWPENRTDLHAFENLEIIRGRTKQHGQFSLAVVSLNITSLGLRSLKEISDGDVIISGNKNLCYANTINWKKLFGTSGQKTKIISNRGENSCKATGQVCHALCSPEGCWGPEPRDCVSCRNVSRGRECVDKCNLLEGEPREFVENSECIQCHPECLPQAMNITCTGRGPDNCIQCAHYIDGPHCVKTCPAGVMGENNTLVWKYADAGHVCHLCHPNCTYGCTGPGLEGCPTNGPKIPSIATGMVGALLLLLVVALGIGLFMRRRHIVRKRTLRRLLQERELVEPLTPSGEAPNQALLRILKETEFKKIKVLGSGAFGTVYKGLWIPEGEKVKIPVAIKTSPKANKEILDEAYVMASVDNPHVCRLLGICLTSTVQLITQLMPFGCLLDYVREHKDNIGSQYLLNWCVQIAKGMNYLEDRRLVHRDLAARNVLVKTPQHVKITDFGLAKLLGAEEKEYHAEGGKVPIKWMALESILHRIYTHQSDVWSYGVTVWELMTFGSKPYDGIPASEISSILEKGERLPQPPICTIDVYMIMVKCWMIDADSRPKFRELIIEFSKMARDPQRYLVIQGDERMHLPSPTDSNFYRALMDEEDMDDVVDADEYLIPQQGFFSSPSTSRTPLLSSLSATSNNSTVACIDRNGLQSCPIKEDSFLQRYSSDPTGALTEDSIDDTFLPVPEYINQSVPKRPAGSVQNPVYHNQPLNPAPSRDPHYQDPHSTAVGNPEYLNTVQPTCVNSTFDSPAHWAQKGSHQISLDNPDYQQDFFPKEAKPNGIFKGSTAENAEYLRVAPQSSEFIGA
Outline: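 Readout: AlphaLISA SureFire Ultra signal in cell lysates, with acceptor beads for 1.5-2 h and donor beads overnight at room temperature in the dark. Beforehand, unstimulated cells in 10% FBS medium received compounds (10 points, 4-fold steps) for 4 h at 37° C. IC50 came from percent inhibition curves.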

EGFR L858R, sequence (P00533 25-1210 L858R): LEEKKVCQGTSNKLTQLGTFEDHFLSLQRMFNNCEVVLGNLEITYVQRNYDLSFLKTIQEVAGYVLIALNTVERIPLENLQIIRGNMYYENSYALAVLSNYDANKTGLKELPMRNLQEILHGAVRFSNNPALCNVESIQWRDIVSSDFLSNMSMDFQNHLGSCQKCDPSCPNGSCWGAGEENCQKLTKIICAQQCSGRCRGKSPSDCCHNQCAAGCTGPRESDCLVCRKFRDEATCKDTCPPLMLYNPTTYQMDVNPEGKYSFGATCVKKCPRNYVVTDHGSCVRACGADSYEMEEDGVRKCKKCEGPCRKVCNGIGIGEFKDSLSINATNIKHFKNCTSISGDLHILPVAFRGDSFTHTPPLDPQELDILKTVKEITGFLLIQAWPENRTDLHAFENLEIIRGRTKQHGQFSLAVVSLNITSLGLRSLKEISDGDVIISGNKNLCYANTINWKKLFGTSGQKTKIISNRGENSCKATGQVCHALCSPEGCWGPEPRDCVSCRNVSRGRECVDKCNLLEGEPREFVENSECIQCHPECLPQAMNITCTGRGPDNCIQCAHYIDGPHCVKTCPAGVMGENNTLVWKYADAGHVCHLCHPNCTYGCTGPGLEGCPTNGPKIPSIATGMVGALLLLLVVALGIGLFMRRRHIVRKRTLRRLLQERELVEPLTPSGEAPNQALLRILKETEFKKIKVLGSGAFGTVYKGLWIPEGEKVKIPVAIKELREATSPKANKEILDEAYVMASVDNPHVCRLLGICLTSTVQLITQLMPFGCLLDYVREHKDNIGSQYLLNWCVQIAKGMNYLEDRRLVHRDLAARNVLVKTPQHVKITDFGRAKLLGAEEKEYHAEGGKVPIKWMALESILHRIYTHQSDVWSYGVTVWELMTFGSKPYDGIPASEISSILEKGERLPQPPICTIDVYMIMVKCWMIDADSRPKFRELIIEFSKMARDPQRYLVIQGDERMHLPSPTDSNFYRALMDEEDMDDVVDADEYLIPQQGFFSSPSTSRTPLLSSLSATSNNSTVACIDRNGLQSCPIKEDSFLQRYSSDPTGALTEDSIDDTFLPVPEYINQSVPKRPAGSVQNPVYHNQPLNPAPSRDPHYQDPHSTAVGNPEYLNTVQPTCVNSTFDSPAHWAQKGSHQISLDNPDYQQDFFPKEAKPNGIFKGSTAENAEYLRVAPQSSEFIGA

| SMILES | IC50 [1] [nM] | IC50 [2] [nM] | IC50 [3] [nM] |
| --- | --- | --- | --- |
| CCOc1cc2ncnc(-c3cn(C)nc3-c3ccccc3)c2cc1[C@H](C)O (single isomer, unassigned) [Example 103, (S)-1-(7-ethoxy-4-(1-methyl-3-phenyl-1H-pyrazol-4-yl)quinazolin-6-yl)ethan-1-ol or (R)-1-(7-ethoxy-4-(1-methyl-3-phenyl-1H-pyrazol-4-yl)quinazolin-6-yl)ethan-1-ol] | 1.7 | 0.6 | 2.7 |
| Cn1cc(-c2ccc3c(-c4c[nH]nc4-c4ccccc4)ncnc3c2)cn1 [Example 441, 7-(1-methyl-1H-pyrazol-4-yl)-4-(3-phenyl-1H-pyrazol-4-yl)quinazoline] | 1.1 | 0.7 | 0.4 |
| CCC(=O)Nc1cc2c(-c3cn(C4CCOCC4)nc3-c3ccccc3)ncnc2cc1OC [Example 248, N-(7-methoxy-4-(3-phenyl-1-(tetrahydro-2H-pyran-4-yl)-1H-pyrazol-4-yl)quinazolin-6-yl)propionamide] | 2 | 1.5 | 1.3 |
| COc1cc2ncnc(-c3cn(C)nc3-c3ccccc3)c2cc1NC(=O)c1cnccc1F [Example 326, 4-fluoro-N-(7-methoxy-4-(1-methyl-3-phenyl-1H-pyrazol-4-yl)quinazolin-6-yl) nicotinamide] | 1.2 | 0.8 | 1 |
| CCOc1cc2ncnc(-c3cn(C4CC4)nc3-c3ccccc3)c2cc1[C@@H](C)O (single isomer, unassigned) [Example 111, (R)-1-(4-(1-cyclopropyl-3-phenyl-1H-pyrazol-4-yl)-7-ethoxyquinazolin-6-yl)ethan-1-ol or (S)-1-(4-(1-cyclopropyl-3-phenyl-1H-pyrazol-4-yl)-7-ethoxyquinazolin-6-yl)ethan-1-ol] | 1.4 | 0.7 | 2.5 |
| COc1cc2ncnc(-c3cn(C)nc3-c3ccccc3)c2nc1O[C@H](C)c1cn(C)nn1 [Example 43, (R)-7-methoxy-6-(1-(1-methyl-1H-1,2,3-triazol-4-yl)ethoxy)-4-(1-methyl-3-phenyl-1H-pyrazol-4-yl)pyrido[3,2-d]pyrimidine] | 1.4 | 0.8 | 1.9 |
| COc1cc2ncnc(-c3cn(C4CC4)nc3-c3ccccc3)c2nc1NC(=O)C1(C(F)(F)F)CC1 [Example 367, N-(4-(1-cyclopropyl-3-phenyl-1H-pyrazol-4-yl)-7-methoxypyrido[3,2-d]pyrimidin-6-yl)-1-(trifluoromethyl)cyclopropane-1-carboxamide] | 1.6 | 0.9 | 0.5 |
| COc1cc2ncnc(-c3cn(C)nc3-c3ccccc3)c2cc1NC(=O)[C@@H](C)F (single isomer, unassigned) [Example 245, (R)-2-fluoro-N-(7-methoxy-4-(1-methyl-3-phenyl-1H-pyrazol-4-yl)quinazolin-6-yl) propenamide or (S)-2-fluoro-N-(7-methoxy-4-(1-methyl-3-phenyl-1H-pyrazol-4-yl)quinazolin-6-yl) propenamide] | 1.9 | 1 | 2.6 |
| CCOc1cc2ncnc(-c3cn(C)nc3-c3ccccc3)c2cc1OC1CCN(C(=O)CC)CC1 [Example 10, 1-(4-((7-ethoxy-4-(1-methyl-3-phenyl-1H-pyrazol-4-yl)quinazolin-6-yl)oxy)piperidin-1-yl) propan-1-one] | 3.5 | 1.9 | 2.8 |
| COc1cc2ncnc(-c3cn(C(F)(F)F)nc3-c3ccccc3)c2cc1NC(=O)C12CC(C1)C2 [Example 484, N-(7-methoxy-4-(3-phenyl-1-(trifluoromethyl)-1H-pyrazol-4-yl)quinazolin-6-yl)bicyclo[1.1.1]pentane-1-carboxamide] | 48.7 | 13.4 | 184 |
| COc1cc2ncnc(-c3cn(C)nc3-c3ccccc3)c2nc1OC(C)c1cn(C)nn1 (stereo not drawn) [Example 34, 7-methoxy-6-(1-(1-methyl-1H-1,2,3-triazol-4-yl)ethoxy)-4-(1-methyl-3-phenyl-1H-pyrazol-4-yl)pyrido[3,2-d]pyrimidine] | 6.1 | 1.6 | 2.5 |
| COc1cc2ncnc(-c3cn(C)nc3-c3ccccc3)c2cc1OC(=O)N1CCOCC1(C)C [Example 81, 7-methoxy-4-(1-methyl-3-phenyl-1H-pyrazol-4-yl)quinazolin-6-yl 3,3-dimethylmorpholine-4-carboxylate] | 6.1 | 2.2 | 5.2 |
| COc1cc2ncnc(-c3cn(C)nc3-c3ccccc3)c2nc1NC(=O)C12CCCN1CCC2 [Example 368, N-(7-methoxy-4-(1-methyl-3-phenyl-1H-pyrazol-4-yl)pyrido[3,2-d]pyrimidin-6-yl)tetrahydro-1H-pyrrolizine-7a(5H)-carboxamide] | 3.9 | 1.5 | 4.6 |
| CN1CCC(n2cc(-c3ccc4c(-c5c[nH]nc5-c5ccccc5)ncnc4c3)cn2)CC1 [Example 442, 7-(1-(1-methylpiperidin-4-yl)-1H-pyrazol-4-yl)-4-(3-phenyl-1H-pyrazol-4-yl)quinazoline] | 1.4 | 1.1 | 0.4 |
| COc1cc2ncnc(-c3cn(C)nc3-c3ccccc3)c2cc1C1=CCN(C)C1 [Example 131, 7-methoxy-6-(1-methyl-2,5-dihydro-1H-pyrrol-3-yl)-4-(1-methyl-3-phenyl-1H-pyrazol-4-yl)quinazoline] | 1.6 | 1.9 | 3.3 |
| COc1cc2ncnc(-c3cn(C)nc3-c3ccccc3)c2cc1NC(=O)c1cn(C(C)C)nc1C [Example 217, 1-isopropyl-N-(7-methoxy-4-(1-methyl-3-phenyl-1H-pyrazol-4-yl)quinazolin-6-yl)-3-methyl-1H-pyrazole-4-carboxamide] | 1.7 | 0.9 | 1.2 |
| COc1cc2ncnc(-c3cn(C)nc3-c3ccccc3)c2cc1OC(=O)N1C[C@@H](C)OC[C@@H]1C (racemic) [Example 91, trans-rac-7-methoxy-4-(1-methyl-3-phenyl-1H-pyrazol-4-yl)quinazolin-6-yl (2R,5S)-2,5-dimethylmorpholine-4-carboxylate or cis-rac-7-methoxy-4-(1-methyl-3-phenyl-1H-pyrazol-4-yl)quinazolin-6-yl (2S,5S)-2,5-dimethylmorpholine-4-carboxylate] | 9.3 | 5.6 | 9.5 |
| COc1cc2ncnc(-c3cn(C)nc3-c3ccccc3)c2cc1[C@H]1CN(C)CCO1 (single isomer, unassigned) [Example 129, (S)-2-(7-methoxy-4-(1-methyl-3-phenyl-1H-pyrazol-4-yl)quinazolin-6-yl)-4-methylmorpholine or (R)-2-(7-methoxy-4-(1-methyl-3-phenyl-1H-pyrazol-4-yl)quinazolin-6-yl)-4-methylmorpholine] | 4.3 | 1.1 | 2.7 |
| COc1cc2ncnc(-c3cn(C)nc3-c3ccccc3)c2cc1-c1cccc2c1cnn2C [Example 141, 7-methoxy-6-(1-methyl-1H-indazol-4-yl)-4-(1-methyl-3-phenyl-1H-pyrazol-4-yl)quinazoline] | 7.1 | 1.9 | 7.6 |
| COc1cc2ncnc(-c3cn(C)nc3-c3ccccc3)c2cc1NC(=O)[C@@H]1C[C@H]1C(F)(F)F [Example 286, (1R,2R)—N-(7-methoxy-4-(1-methyl-3-phenyl-1H-pyrazol-4-yl)quinazolin-6-yl)-2-(trifluoromethyl)cyclopropane-1-carboxamide] | 3.5 | 1.6 | 4.3 |
| COc1cc2ncnc(-c3cn(C)nc3-c3ccccc3F)c2cc1NC(=O)C1(CN(C)C)CC1 [Example 188, 1-((dimethylamino)methyl)-N-(4-(3-(2-fluorophenyl)-1-methyl-1H-pyrazol-4-yl)-7-methoxyquinazolin-6-yl)cyclopropane-1-carboxamide] | 2 | 0.8 | 1.3 |
| COc1cc2ncnc(-c3cn(C)nc3-c3c(F)cccc3F)c2cc1NC(=O)[C@]12C[C@H]1CN(C)C2 [Example 293, (1R,5R)—N-(4-(3-(2,6-difluorophenyl)-1-methyl-1H-pyrazol-4-yl)-7-methoxyquinazolin-6-yl)-3-methyl-3-azabicyclo[3.1.0]hexane-1-carboxamide] | 277 | 3.4 | 8.9 |
| COc1cc2ncnc(-c3cn(CC(F)F)nc3-c3ccccc3)c2cc1OC(=O)N1CCOC[C@@H]1C [Example 76, 4-(1-(2,2-difluoroethyl)-3-phenyl-1H-pyrazol-4-yl)-7-methoxyquinazolin-6-yl (S)-3-methylmorpholine-4-carboxylate] | 2.1 | 0.9 | 1.4 |
| COCC1(C(=O)Nc2cc3c(-c4cn(C)nc4-c4ccccc4)ncnc3cc2OC)CCC1 [Example 214, N-(7-methoxy-4-(1-methyl-3-phenyl-1H-pyrazol-4-yl)quinazolin-6-yl)-1-(methoxymethyl)cyclobutane-1-carboxamide] | 1.6 | 0.9 | 1.2 |
| CCn1cc(-c2ncnc3cc(OC)c(NC(=O)[C@@]45COC[C@@H]4C5)cc23)c(-c2ccccc2)n1 [Example 288, (1R,5R)—N-(4-(1-ethyl-3-phenyl-1H-pyrazol-4-yl)-7-methoxyquinazolin-6-yl)-3-oxabicyclo[3.1.0]hexane-1-carboxamide] | 1.9 | 1.2 | 2 |
